Assay: Assay of physical mixtures and extrudates for API stability by HPLC-UV
Format: physicochemical
Conditions: after the grinding and sieving process as well as extrusion; physical mixture and extrudate
Description: Physical mixtures were assayed for drug load and stability post grinding and sieving. 5 mg of sample was weighed into an aluminum weighing boat and transferred to a low-binding Eppendorf, followed by the addition of 50 uL of ACN. This was vortexed vigorously until the polymer had dissolved and the API precipitated. Next, water was added and the mixture vortexed vigorously again until the API dissolved completely, and polymer had precipitated. For the 18% drug loaded physical mixtures, 2950 μL water was added and for the 9% drug loaded physical mixtures, 1450 μL water was added. Lastly, the Eppendorfs were centrifuged for 30 seconds at a speed of 5′000 RPM.
Extrudates were assayed for drug load and stability by cutting them to specific weights to give the same end concentration as the standards (net peptide concentration of 0.3 mg/mL) after the addition of diluent. […] Lastly, the Eppendorfs were centrifuged and supernatants analyzed.
Drug load and stability of API in the extrudates were quantified by HPLC-UV as describe above. […] Additionally, the homogeneity of the entire length of the extrudate was assessed by cutting and weighing three 3 mm pieces from each section from 1 to 16 (N=16, n=3) and assaying in the same way as outlined above (Assay of physical mixtures by HPLC-UV). Lastly, the average diameter of the extrudates was measured by caliper.

In the case of `C[C@@H](O)[C@H](NN)C(=O)N[C@@H](CCCCN)C(=O)N1CCC[C@H]1C(=O)N[C@@H](CCCNC(=N)N)C(=O)C(=O)CNNC(Cc1ccc(O)c(/N=N/c2ccc(OP(=O)([O-])OCC[N+](C)(C)C)cc2)c1)C(=O)O` (stereo partly shown) [PTC, Dazdotuftide], the “stability of API after processing” value is reported as “stable”.

— patent publication US20260021158A1, “GRANULAR COMPOSITIONS COMPRISING A PEPTIDE AND USES THEREOF” (TARSIER PHARMA LTD., priority 2022, published 2026)
